Test results as given in patent US10143200B2, “Synergistic compositions for the protection of agrarian crops and the use thereof” (STICHTING I-F PRODUCT COLLABORATION, priority 2012, dated 2018).

Key:
wheat plants = assay: Phytotoxicity (percentage of leaf necrosis) on wheat plants; assay type: in vivo, wheat (Salgemma variety); settings: scale 0 (none) to 100
Experimental: Leaves of wheat plants of the Salgemma variety, grown in pots in a conditioned environment kept at 20° C. and 70% of relative humidity (R.H.), were treated by spraying both sides of the leaves with the compounds and the compositions under testing, dispersed in hydroacetonic solutions at 20% by volume of acetone.
At the same time, the phytotoxicity (percentage of leaf necrosis) induced on the wheat plants by the application of the products and compositions was evaluated: in this case, the scale ranged from 0 (no phytotoxicity) to 100 (completely necrotized plant).

Botrytis cinerea (BC) = assay: In vitro growth inhibition of spore suspensions (optical density 405 nm, 43 h); assay type: cell-based; settings: concentration giving 50% growth inhibition; Botrytis cinerea spores, 43 hours at room temperature, average of three replicates
[1] = test system: Stagonospora nodorum (SN); assay: as above; assay type: cell-based; settings: concentration giving 50% growth inhibition; Stagonospora nodorum spores, 43 hours at room temperature, average of three replicates
Puccinia recondita = assay: Fungicidal activity in preventive application (5 days) on wheat; assay type: in vivo, Puccinia recondita on wheat (Salgemma variety); settings: leaf spray 5 days before inoculation, reduction of affected leaf area vs untreated, scale 0-100
Experimental: Leaves of wheat plants of the […] variety, grown in pots in a conditioned environment kept at 20° C. and 70% of relative humidity (R.H.), were treated by spraying both sides of the leaves with the compounds and the compositions under testing, dispersed in hydroacetonic solutions at 20% by volume of acetone. After remaining 5 days in a conditioned environment, the plants were sprayed on both sides of the leaves with an aqueous suspension of conidia of Puccinia recondita (2 mg of inoculum per 1 ml of solution for infection). After being sprayed, the plants were kept in a humidity-saturated environment at a temperature ranging from 18 to 24° C. for the incubation period of the fungus (1 day). After this period, the plants were put in a greenhouse with R.H. of 70% and at a temperature of 18-24° C. for 14 days. At the end of this period the external symptoms of the pathogen appeared and it was therefore possible to proceed with the visual assessment of the intensity of the infection. The fungicidal activity was expressed as percentage of reduction of affected leaves areas with respect to those of untreated plants used as control: the scale comprised, as extremes, the value 100 (full activity; healthy plant) and the value 0 (no activity; completely infected plant).

## CC1CC(C)(C)c2c(F)ccc(NC(=O)c3cn(C)nc3C(F)F)c21 (single isomer, unassigned; (-)) [(−)-(I), 3-difluoromethyl-N-(7-fluoro-1,1,3-trimethyl-4-indanyl)-1-methyl-4-pyrazolecarboxamide]
Wheat plants; Rate 62.5 ppm
  % Phytotoxicity: 0%
Wheat plants; Rate 125 ppm
  % Phytotoxicity: 0%
Botrytis cinerea (BC)
  EC50 against Botrytis cinerea: 0.17 ppm
[1]
  SN EC50: 0.42 ppm
Puccinia recondita; Rate 62.5 ppm
  % Activity: 96%
Puccinia recondita; Rate 125 ppm
  % Activity: 100%

## CC1CC(C)(C)c2c(F)ccc(NC(=O)c3cn(C)nc3C(F)F)c21 (single isomer, unassigned; (+)) [(+)-(I), 3-difluoromethyl-N-(7-fluoro-1,1,3-trimethyl-4-indanyl)-1-methyl-4-pyrazolecarboxamide]
Wheat plants; Rate 62.5 ppm
  % Phytotoxicity: 0%
Wheat plants; Rate 125 ppm
  % Phytotoxicity: 0%
Botrytis cinerea (BC)
  EC50 against Botrytis cinerea: n.i.
[1]
  SN EC50: 72 ppm
Puccinia recondita; Rate 62.5 ppm
  % Activity: 20%
Puccinia recondita; Rate 125 ppm
  % Activity: 45%

## CC1CC(C)(C)c2c(F)ccc(NC(=O)c3cn(C)nc3C(F)F)c21 (racemic) [Racemic (I), 3-difluoromethyl-N-(7-fluoro-1,1,3-trimethyl-4-indanyl)-1-methyl-4-pyrazolecarboxamide]
Wheat plants; Rate 62.5 ppm
  % Phytotoxicity: 0%
Wheat plants; Rate 125 ppm
  % Phytotoxicity: 0%
Botrytis cinerea (BC)
  EC50 against Botrytis cinerea: 0.32 ppm
[1]
  SN EC50: 1.1 ppm
Puccinia recondita; Rate 62.5 ppm
  % Activity: 96%
Puccinia recondita; Rate 125 ppm
  % Activity: 98%
